For the series, the system named is Rtkn-GFP. Briefly: ToxTracker genotoxicity assay, Rtkn-GFP reporter induction.

As to `CC1CN1CC(C)(C)OC(=O)NCCCCCCn1c(=O)n(CCCCCCNC(=O)OC(C)(C)CN2CC2C)c(=O)n(CCCCCCNC(=O)OC(C)(C)CN2CC2C)c1=O` (stereo not drawn) [Ex. 1], the Rtkn induction level (with S9 rat liver extract, 3 h exposure and 24 h recovery, at 10% cytotoxicity) turned out to be 1.0 fold; the Rtkn induction level (with S9 rat liver extract, 3 h exposure and 24 h recovery, at 25% cytotoxicity) is reported as 1.1 fold; the Rtkn induction level (with S9 rat liver extract, 3 h exposure and 24 h recovery, at 50% cytotoxicity) is reported as 1.3 fold; the Rtkn induction level (without S9 rat liver extract, 24 h exposure, at 10% cytotoxicity) is on record as 1.1 fold; the Rtkn induction level (without S9 rat liver extract, 24 h exposure, at 25% cytotoxicity) amounted to 1.1 fold; the Rtkn induction level (without S9 rat liver extract, 24 h exposure, at 50% cytotoxicity) is 1.3 fold.
